Key:
FLT3 = molecular target: T1, FLT3 (Homo sapiens, UniProt P36888); experiment: Kinase inhibition activity test, isotope labeling (γ-33P-ATP): FLT3; format: biochemical; conditions: for IC50: ATP 200 μM, read-out: FLT3 IC50 value (inhibitory activity value); for Activity inhibition rate Flt3 (h) / inhibition at 10 µM: test compound at a concentration of 10 μM; for inhibition at 10 µM: read-out: Activity inhibition rate Flt3 (h)
T1 sequence (P36888 27-993): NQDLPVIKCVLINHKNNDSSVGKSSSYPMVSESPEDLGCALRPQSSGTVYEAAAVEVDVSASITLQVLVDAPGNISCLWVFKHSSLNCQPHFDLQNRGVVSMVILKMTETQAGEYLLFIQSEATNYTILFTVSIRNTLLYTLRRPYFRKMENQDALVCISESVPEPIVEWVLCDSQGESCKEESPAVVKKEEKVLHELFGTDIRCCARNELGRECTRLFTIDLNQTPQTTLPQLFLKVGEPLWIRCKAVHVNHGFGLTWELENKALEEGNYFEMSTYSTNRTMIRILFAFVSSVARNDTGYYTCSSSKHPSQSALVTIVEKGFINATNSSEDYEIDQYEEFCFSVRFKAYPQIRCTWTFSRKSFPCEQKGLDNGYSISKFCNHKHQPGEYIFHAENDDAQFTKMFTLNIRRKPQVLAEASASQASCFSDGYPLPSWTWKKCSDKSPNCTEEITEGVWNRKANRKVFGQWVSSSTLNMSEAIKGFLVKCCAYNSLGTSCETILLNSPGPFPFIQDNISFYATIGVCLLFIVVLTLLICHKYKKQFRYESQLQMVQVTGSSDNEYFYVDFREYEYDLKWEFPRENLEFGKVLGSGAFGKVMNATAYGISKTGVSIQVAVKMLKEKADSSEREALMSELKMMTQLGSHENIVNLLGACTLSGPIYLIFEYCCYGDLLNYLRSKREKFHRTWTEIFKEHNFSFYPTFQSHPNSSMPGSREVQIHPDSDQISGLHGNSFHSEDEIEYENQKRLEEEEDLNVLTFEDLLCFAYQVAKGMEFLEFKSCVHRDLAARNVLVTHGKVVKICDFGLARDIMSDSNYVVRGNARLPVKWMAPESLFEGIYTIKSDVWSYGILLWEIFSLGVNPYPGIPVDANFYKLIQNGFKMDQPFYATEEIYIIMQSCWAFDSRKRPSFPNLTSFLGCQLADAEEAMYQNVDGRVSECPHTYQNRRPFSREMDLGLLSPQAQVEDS
Procedure: (§1) The purpose of this experiment was to test the inhibitory activity of the compound of the invention for in vitro kinase with the isotope labeling method (the γ phosphate group on ATP was labeled). In this experiment, the in vitro activity inhibition of such kinases as FLT3, VEGFR2, FLT1, FLT4, RET, c-RAF, B-RAF, c-KIT, PDGFα, PDGFβ, FGFR2, FGFR1, EphA2, EphB2, SRC, ABL, ALK and Met was tested respectively. Staurosporine was reference molecule (or referred to as positive control). The kinase inhibition activity of the test compound was expressed by half-inhibitory concentration (IC50) or the kinase activity inhibition rate of the test compound at a concentration of 10 μM. The IC50 value could be obtained by calculating the kinase activity inhibition rate of the test compound at different concentrations.
(§2) 20 mM 3-(N-morpholinyl)propanesulfonic acid (MOPS); 1 mM ethylenediaminetetraacetic acid (EDTA), 0.01% Brij 35 (Brij-35), 5% glycerol, 0.1% mercaptoethanol, 1 mg/mL bovine serum albumin (BSA), 10 mM manganous dichloride solution (MnCl2), 0.1 mg/mL glutamic acid/tyrosine (4:1) polypeptide (poly(Glu, Tyr)4:1), 50 μM EAIYAAPFAKKK (substrate of FLT3), 0.33 mg/mL myelin basic protein (substrate of VEGFR2), 250 μM KKKSPGEYVNIEFG (substrate of FLT1(h)), 500 μM GGEEEEYFELVKKKK (substrate of FLT4(h)), 250 μM KKKSPGEYVNIEFG (substrate of RET), 0.66 mg/mL myelin basic protein (substrate of C-RAF), 250 μM GGMEDIYFEFMGGKKK (substrate of c-Kit), 250 μM GGMEDIYFEFMGGKKK (substrate of PDGFα), 250 μM KKKSPGEYVNIEFG (substrate of FGFR1), […] GGEEEEYFELVKKKK (substrate of SRC), 50 μM EAIYAAPFAKKK (substrate of ABL), 250 μM KKKSPGEYVNIEFG (substrate of ALK), 250 μM KKKSPGEYVNIEFG (substrate of Met(h)), 10 mM magnesium acetate and γ-^33 P-ATP solution, stop buffer (3% phosphate buffer), washing buffer (75 mM phosphate solution), methanol, Filtermat A membrane, FLT3, VEGFR2, FLT3, VEGFR2, FLT1, FLT4, RET, c-RAF, B-RAF, c-KIT, PDGFRα, PDGFRβ, FGFR2, FGFR1, EphA2, EphB2, SRC, ABL, ALK, Met and other kinases, and the test compounds.
(§3) Buffers (8 mM MOPS with pH value of 7.0, 0.2 mM EDTA and 10 mM MnCl2), (5-10 mU) kinases to be tested (FLT3, VEGFR2, FLT1, FLT4, RET, c-RAF, B-RAF, c-KIT, PDGFRα, PDGFRβ, FGFR2, FGFR1, EphA2, EphB2, SRC, ABL, ALK and Met), substrates of kinases to be tested (refer to experimental materials), 10 mM magnesium acetate and γ-^33 P-ATP solution, and test compounds at different concentrations were added to a reaction tube orderly. […] Reaction was terminated with 5 μL 3% phosphate buffer finally, and 10 μL reaction solution was titrated to the Filtermat A membrane; solution was washed for 3 times with 75 mM phosphate solution with each time lasting 5 minutes, and then washed once with methanol. Finally, the Filtermat A membrane was dried, and scintillation counting was performed on the membrane, with scintillation count reflecting the phosphorylation degree of the substrates, so that the activity inhibition of kinase could be characterized.

Abl/Abl (T315I)(h) = experiment: Kinase inhibition activity test, isotope labeling: Abl; format: biochemical, human; conditions: test compound at a concentration of 10 μM
Procedure: as §1, §2, §3

| SMILES | IC50 (FLT3) | Activity inhibition rate Flt3 (h) (FLT3) | Activity inhibition rate Abl/Abl (T315I)(h) (Abl/Abl (T315I)(h)) | inhibition at 10 µM (FLT3) |
| --- | --- | --- | --- | --- |
| CC(C)(C)c1cc(NC(=O)Nc2ccc(Oc3ncnc4[nH]ncc34)cc2)on1 [4a-25] | 16 nM | 100% | >50% | – |
| CC(C)(C)c1cc(NC(=O)Nc2ccc(Oc3ncnc4[nH]ncc34)cc2)no1 [4a-26] | 8 nM | – | >50% | 100% |
| O=C(Nc1ccc(Oc2ncnc3[nH]ncc23)cc1)Nc1cc(C(F)(F)F)on1 [4a-28] | – | – | >50% | 100% |
| CC(C)(C)c1cc(NC(=O)Nc2ccc(Oc3ncnc4[nH]ncc34)c(F)c2)no1 [4a-31] | 5 nM | 100% | >50% | – |
| O=C(Nc1ccc(Sc2ncnc3[nH]ncc23)cc1)Nc1ccc(C(F)(F)F)cc1 [4c-1] | – | – | >30% | > 90% |
| O=C(Nc1ccc(Sc2ncnc3[nH]ncc23)cc1)Nc1cccc(C(F)(F)F)c1 [4c-2] | – | >90% | >30% | – |
| CC(C)(C)c1cc(NC(=O)Nc2ccc(Sc3ncnc4[nH]ncc34)cc2)no1 [4c-3, 1-(4-(1H-pyrazolopyrimidine-4-sulfydryl)phenyl)-3-(5-tert-butylisoxazol-3-yl)urea] | – | >90% | >30% | – |

— patent US9828375B2, “4-position substituted pyrazolopyrimidine derivative, and use thereof in drug preparation” (Guangxi Wuzhou Pharmaceuticals (Group) Co., Ltd., priority 2012, dated 2017)
